From publication PMC10866925, “Catalyst-free late-stage functionalization to assemble α-acyloxyenamide electrophiles for selectively profiling conserved lysine residues” (Communications Chemistry, 2024) come the findings set out here.

For test [1], the target named is T1, ATP-dependent 6-phosphofructokinase, platelet type (PFKAP) (Homo sapiens, UniProt Q01813).
T1 construct: gene PFKP; full-length
T1 sequence (Q01813 1-784): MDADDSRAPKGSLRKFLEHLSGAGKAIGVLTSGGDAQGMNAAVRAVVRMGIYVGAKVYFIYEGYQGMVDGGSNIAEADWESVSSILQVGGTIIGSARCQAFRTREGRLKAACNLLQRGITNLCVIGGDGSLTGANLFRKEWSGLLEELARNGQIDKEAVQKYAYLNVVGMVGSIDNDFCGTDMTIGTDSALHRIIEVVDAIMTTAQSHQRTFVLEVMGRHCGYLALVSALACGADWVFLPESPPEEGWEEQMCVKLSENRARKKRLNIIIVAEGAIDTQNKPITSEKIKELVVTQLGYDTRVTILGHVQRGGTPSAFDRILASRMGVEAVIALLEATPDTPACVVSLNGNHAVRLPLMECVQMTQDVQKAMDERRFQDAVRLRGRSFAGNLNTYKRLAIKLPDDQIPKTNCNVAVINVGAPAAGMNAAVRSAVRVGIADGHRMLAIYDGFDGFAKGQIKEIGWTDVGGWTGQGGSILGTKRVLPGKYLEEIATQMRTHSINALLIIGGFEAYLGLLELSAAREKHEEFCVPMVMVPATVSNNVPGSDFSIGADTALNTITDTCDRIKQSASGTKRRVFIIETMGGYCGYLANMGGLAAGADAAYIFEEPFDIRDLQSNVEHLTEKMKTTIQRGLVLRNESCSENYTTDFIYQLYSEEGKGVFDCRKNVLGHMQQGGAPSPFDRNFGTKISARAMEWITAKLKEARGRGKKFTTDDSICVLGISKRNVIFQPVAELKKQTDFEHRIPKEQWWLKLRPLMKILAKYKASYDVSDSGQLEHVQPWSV
The test can be described thus: pull-down/LC-MS and pull-down/WB in cells, K688R mutant and siRNA knockdown. Type of test: cell-based.

Test [2] has as its target EGFR L858R mutant (Homo sapiens, UniProt P00533, L858R). Kind of test: Z'-LYTE FRET kinase assay, time dependent ([…] at […] min, […] at […] h); also labelling of recombinant protein, LC-MS/MS site mapping, CETSA, competitive pull-down. Format: biochemical.
In test [3] the target is T2, CDK2 (Homo sapiens, UniProt P24941).
T2 construct: CDK2/cyclinA (h); with cyclin A
Kind of test: radiometric kinase assay ([…]-ATP, histone H1); also K33R pull-down/WB. Format: biochemical.

The target in test [4] is T3, CDK1 (Homo sapiens, UniProt P06493).
T3 construct: CDK1/cyclinB (h); with cyclin B
The test can be described thus: radiometric kinase assay ([…]-ATP, histone H1); also MS of K33 modification, K33R pull-down/WB, CETSA. Type of test: biochemical.

Test [5] has as its target T4, CDK5 (Homo sapiens, UniProt Q00535).
T4 construct: CDK5/p25 (h); with p25
The test can be described thus: radiometric kinase assay ([…]-ATP, histone H1); also K33R pull-down/WB. Format: biochemical.

Chain of EGFR L858R mutant (P00533 669-1210 L858R limits assumed): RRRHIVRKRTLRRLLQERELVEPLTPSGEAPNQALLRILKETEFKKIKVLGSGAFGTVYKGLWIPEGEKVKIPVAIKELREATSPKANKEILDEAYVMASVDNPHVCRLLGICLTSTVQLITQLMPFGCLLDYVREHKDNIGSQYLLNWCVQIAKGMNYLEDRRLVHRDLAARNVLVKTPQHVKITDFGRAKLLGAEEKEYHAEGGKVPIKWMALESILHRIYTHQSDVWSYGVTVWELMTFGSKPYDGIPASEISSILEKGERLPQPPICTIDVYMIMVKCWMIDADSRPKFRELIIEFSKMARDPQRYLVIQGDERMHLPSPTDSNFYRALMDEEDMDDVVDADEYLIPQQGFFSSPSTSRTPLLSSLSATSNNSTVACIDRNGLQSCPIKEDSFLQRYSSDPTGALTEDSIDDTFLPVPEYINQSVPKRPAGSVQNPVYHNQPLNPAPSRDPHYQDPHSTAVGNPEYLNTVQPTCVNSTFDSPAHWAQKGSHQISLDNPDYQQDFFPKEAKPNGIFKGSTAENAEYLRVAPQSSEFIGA
T3 sequence (P06493 whole entry): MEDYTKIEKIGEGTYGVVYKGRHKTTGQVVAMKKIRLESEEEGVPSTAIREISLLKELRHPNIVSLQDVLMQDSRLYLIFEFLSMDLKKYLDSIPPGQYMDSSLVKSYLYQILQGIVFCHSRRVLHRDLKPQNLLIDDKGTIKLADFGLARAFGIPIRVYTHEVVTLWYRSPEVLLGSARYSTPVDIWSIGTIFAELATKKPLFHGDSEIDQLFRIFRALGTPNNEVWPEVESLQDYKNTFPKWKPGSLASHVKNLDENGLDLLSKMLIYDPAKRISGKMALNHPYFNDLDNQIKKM
T3 sequence (P14635 whole entry partner): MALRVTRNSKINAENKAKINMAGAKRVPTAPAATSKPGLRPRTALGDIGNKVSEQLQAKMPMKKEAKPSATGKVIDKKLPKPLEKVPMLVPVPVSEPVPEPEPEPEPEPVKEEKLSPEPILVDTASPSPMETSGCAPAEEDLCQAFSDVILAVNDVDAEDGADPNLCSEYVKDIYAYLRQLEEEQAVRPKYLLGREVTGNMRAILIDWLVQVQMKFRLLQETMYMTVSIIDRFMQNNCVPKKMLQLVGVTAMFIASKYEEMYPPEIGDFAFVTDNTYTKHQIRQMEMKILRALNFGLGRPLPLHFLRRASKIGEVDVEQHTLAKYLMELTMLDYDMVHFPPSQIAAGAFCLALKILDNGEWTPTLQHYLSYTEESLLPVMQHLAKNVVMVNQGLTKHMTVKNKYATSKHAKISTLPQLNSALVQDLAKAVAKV
T4 sequence (Q00535 whole entry): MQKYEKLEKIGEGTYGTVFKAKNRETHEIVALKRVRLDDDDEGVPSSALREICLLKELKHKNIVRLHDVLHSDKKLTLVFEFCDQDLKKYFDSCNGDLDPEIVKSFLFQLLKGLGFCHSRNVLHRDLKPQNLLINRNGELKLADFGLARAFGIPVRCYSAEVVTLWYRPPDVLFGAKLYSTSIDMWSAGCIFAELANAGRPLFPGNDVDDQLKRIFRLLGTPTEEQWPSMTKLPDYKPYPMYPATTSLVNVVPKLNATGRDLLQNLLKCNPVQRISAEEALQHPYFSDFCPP
T4 sequence (Q15078 99-307 partner limits assumed): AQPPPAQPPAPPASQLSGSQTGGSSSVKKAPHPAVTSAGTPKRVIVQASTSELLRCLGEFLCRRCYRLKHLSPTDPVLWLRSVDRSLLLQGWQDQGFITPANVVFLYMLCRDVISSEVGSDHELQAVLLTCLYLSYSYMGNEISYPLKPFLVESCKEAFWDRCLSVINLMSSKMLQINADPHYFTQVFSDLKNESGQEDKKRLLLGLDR

For the molecule `C#Cc1ccc(C(=O)OC(=C)N(C)S(=O)(=O)c2ccc(C)cc2)cc1` [A1], the “pull-down/LC-MS and pull-down/WB in cells, K688R mutant and siRNA knockdown” value in test [1] is on record as “Mutation of PFKAP K688 in the protein binding pocket to K688R severely affects the probe labeling”.

As usually defined, the IC50 is the concentration that inhibits the measured activity by half. Consider `C#Cc1cccc(Nc2ncnc3cc(OC)c(OCCCCC(=O)OC(=C)N(C)S(=O)(=O)c4ccc(C)cc4)cc23)c1` [E3], for which the half-inhibitory concentration (IC50) in test [2] turned out to be 1.3 nM. In the case of `C#CCNC(=O)c1cc(Nc2cc(C3CC3)[nH]n2)nc(N2CCN(C(=O)CCC(=O)OC(=C)N(C)S(=O)(=O)c3ccc(C)cc3)CC2)n1` [X1], the half-inhibitory concentration (IC50) in test [3], in test [4] and in test [5] was 2 to 6 µM each time.
